Measured values taken from ChEMBL document CHEMBL3885881, “DrugMatrix”.

Species: Rattus norvegicus
Assay: DrugMatrix - Regimen: Daily Repeat
Assay type: toxicity, organism-based, Sprague-Dawley
Design: regimen Daily Repeat, gender Male, age 6-8 weeks
Conditions: in vivo, po, 0 mg/kg, route oral GAVAGE, dose level Control, […]; for ABSOLUTE BASOPHIL / ABSOLUTE EOSINOPHIL / ABSOLUTE LYMPHOCYTE / ABSOLUTE MONOCYTE / ABSOLUTE SEGMENTED NEUTROPHIL / BASOPHIL / EOSINOPHIL / ERYTHROCYTE COUNT / HEMATOCRIT / HEMOGLOBIN / LEUKOCYTE COUNT / LYMPHOCYTE / MEAN CORPUSCULAR HEMOGLOBIN / MEAN CORPUSCULAR HEMOGLOBIN CONCENTRATION / MEAN CORPUSCULAR VOLUME / MONOCYTE / NEUTROPHIL / NUCLEATED RED BLOOD CELLS / PLATELET COUNT: tissue Blood
[1] = 72 h, tissue Plasma, time 3 day
[2] = 120 h, tissue Plasma, time 5 day

Structure (SMILES): Cc1cccc(C)c1NC(=O)C(C)N (stereo not given) [TOCAINIDE]
- ABSOLUTE BASOPHIL (72 h, time 3 day): 0 CELLS/uL
- ABSOLUTE EOSINOPHIL (72 h, time 3 day): 41.83 CELLS/uL
- ABSOLUTE LYMPHOCYTE (72 h, time 3 day): 8545.5 CELLS/uL
- ABSOLUTE MONOCYTE (72 h, time 3 day): 240 CELLS/uL
- ABSOLUTE SEGMENTED NEUTROPHIL (72 h, time 3 day): 906 CELLS/uL
- BASOPHIL (72 h, time 3 day): 0%
- EOSINOPHIL (72 h, time 3 day): 0.33%
- ERYTHROCYTE COUNT (72 h, time 3 day): 5.6 x10E6/uL
- HEMATOCRIT (72 h, time 3 day): 35.4%
- HEMOGLOBIN (72 h, time 3 day): 13.42 G/DL
- LEUKOCYTE COUNT (72 h, time 3 day): 9.73 x10E3/uL
- LYMPHOCYTE (72 h, time 3 day): 87.83%
- MEAN CORPUSCULAR HEMOGLOBIN (72 h, time 3 day): 23.98 pg
- MEAN CORPUSCULAR HEMOGLOBIN CONCENTRATION (72 h, time 3 day): 37.92 G/DL
- MEAN CORPUSCULAR VOLUME (72 h, time 3 day): 63.3 fL
- MONOCYTE (72 h, time 3 day): 2.5%
- NEUTROPHIL (72 h, time 3 day): 9.33%
- NUCLEATED RED BLOOD CELLS (72 h, time 3 day): 0 /100WBC
- PLATELET COUNT (72 h, time 3 day): 1032 x10E3/uL
- ALANINE AMINOTRANSFERASE [1]: 72.83 u/L
- ALBUMIN [1]: 4 G/DL
- ALKALINE PHOSPHATASE [1]: 322.83 u/L
- ASPARTATE AMINOTRANSFERASE [1]: 102.67 u/L
- BLOOD UREA NITROGEN [1]: 12 mg/dL
- CARBON DIOXIDE [1]: 34.33 mmol/L
- CHLORIDE [1]: 97.67 MEQ/L
- CHOLESTEROL [1]: 82.5 mg/dL
- CREATINE PHOSPHOKINASE [1]: 410.33 u/L
- CREATININE [1]: 0.18 mg/dL
- GLUCOSE [1]: 164.5 mg/dL
- LACTATE DEHYDROGENASE [1]: 119.5 u/L
- LIPASE [1]: 11.83 u/L
- PHOSPHORUS [1]: 9.52 mg/dL
- POTASSIUM [1]: 5.56 MEQ/L
- SODIUM [1]: 142.48 MEQ/L
- TOTAL BILIRUBIN [1]: 0.18 mg/dL
- TOTAL PROTEIN [1]: 5.77 G/DL
- URIC ACID [1]: 0.48 mg/dL
- ABSOLUTE BASOPHIL (120 h, time 5 day): 0 CELLS/uL
- ABSOLUTE EOSINOPHIL (120 h, time 5 day): 0 CELLS/uL
- ABSOLUTE LYMPHOCYTE (120 h, time 5 day): 9065 CELLS/uL
- ABSOLUTE MONOCYTE (120 h, time 5 day): 341.33 CELLS/uL
- ABSOLUTE SEGMENTED NEUTROPHIL (120 h, time 5 day): 527 CELLS/uL
- BASOPHIL (120 h, time 5 day): 0%
- EOSINOPHIL (120 h, time 5 day): 0%
- ERYTHROCYTE COUNT (120 h, time 5 day): 5.25 x10E6/uL
- HEMATOCRIT (120 h, time 5 day): 34.08%
- HEMOGLOBIN (120 h, time 5 day): 13.5 G/DL
- LEUKOCYTE COUNT (120 h, time 5 day): 9.93 x10E3/uL
- LYMPHOCYTE (120 h, time 5 day): 91.17%
- MEAN CORPUSCULAR HEMOGLOBIN (120 h, time 5 day): 25.7 pg
- MEAN CORPUSCULAR HEMOGLOBIN CONCENTRATION (120 h, time 5 day): 39.62 G/DL
- MEAN CORPUSCULAR VOLUME (120 h, time 5 day): 64.93 fL
- MONOCYTE (120 h, time 5 day): 3.33%
- NEUTROPHIL (120 h, time 5 day): 5.5%
- NUCLEATED RED BLOOD CELLS (120 h, time 5 day): 0 /100WBC
- PLATELET COUNT (120 h, time 5 day): 1077.5 x10E3/uL
- ALANINE AMINOTRANSFERASE [2]: 57.83 u/L
- ALBUMIN [2]: 4.07 G/DL
- ALKALINE PHOSPHATASE [2]: 319.17 u/L
- ASPARTATE AMINOTRANSFERASE [2]: 83.33 u/L
- BLOOD UREA NITROGEN [2]: 13.67 mg/dL
- CARBON DIOXIDE [2]: 30.83 mmol/L
- CHLORIDE [2]: 98.33 MEQ/L
- CHOLESTEROL [2]: 64.83 mg/dL
- CREATINE PHOSPHOKINASE [2]: 263.67 u/L
- CREATININE [2]: 0.2 mg/dL
- GLUCOSE [2]: 182.83 mg/dL
- LACTATE DEHYDROGENASE [2]: 124 u/L
- LIPASE [2]: 10.5 u/L
- PHOSPHORUS [2]: 10 mg/dL
- POTASSIUM [2]: 5.78 MEQ/L
- SODIUM [2]: 142.48 MEQ/L
- TOTAL BILIRUBIN [2]: 0.2 mg/dL
- TOTAL PROTEIN [2]: 6 G/DL
